In publication PMC10300873, “Characterization of Polyphenols from Chenopodium botrys after Fractionation with Different Solvents and Study of Their In Vitro Biological Activity” (Molecules, 2023):

Test system: T1, trypsin
T1 construct: gene PRSS1
Assay: antitryptic activity: albumin digestion, perchloric acid precipitation, A280
Format: biochemical
Conditions: human albumin (4% v/v) as substrate, Tris-HCl pH 7.4, 37 °C, 5 min preincubation, 20 min reaction
Source text: antitryptic activity: albumin digestion, perchloric acid precipitation, A280 on trypsin

ATA / IC50 ± SD: 259.82 ± 9.14 µg/mL
SMILES: CC(C)Cc1ccc(C(C)C(=O)O)cc1 (stereo not shown) [ibuprofen]
